# Laboratory results as given in ChEMBL document CHEMBL1137628, “Bactericidal activity of extended 9-glycyl-amido-minocyclines” (2007).
# System: Staphylococcus aureus
# Assay: Antibacterial activity against Staphylococcus aureus Rosenbach after 14 hrs
# Assay type: functional
row,SMILES,MIC [µg/mL]
1,CN(C)c1cc(NC(=O)CN)c(O)c2c1C[C@H]1C[C@H]3[C@H](N(C)C)C(O)=C(C(N)=O)C(=O)[C@@]3(O)C(O)=C1C2=O,2
2,CN(C)c1cc(N)c(O)c2c1C[C@H]1C[C@H]3[C@H](N(C)C)C(O)=C(C(N)=O)C(=O)[C@@]3(O)C(O)=C1C2=O,2
3,CN(C)c1cc(NC(=O)CNN)c(O)c2c1C[C@H]1C[C@H]3[C@H](N(C)C)C(O)=C(C(N)=O)C(=O)[C@@]3(O)C(O)=C1C2=O,2
4,CN(C)c1ccc(O)c2c1C[C@H]1C[C@H]3[C@H](N(C)C)C(O)=C(C(N)=O)C(=O)[C@@]3(O)C(O)=C1C2=O [MINOCYCLINE],0.125
